Read-outs that look alike come from different tables or passages of the source.
Legend:
GlyRA1 = molecular target: T1, GlyRA1 (Homo sapiens, UniProt P23415); format: cell-based
T1 construct: purchased Cerep (Eurofins), Poitiers, France; Promega P450-Glo; in-house COS-7 uptake assays
T1 sequence (P23415 29-457): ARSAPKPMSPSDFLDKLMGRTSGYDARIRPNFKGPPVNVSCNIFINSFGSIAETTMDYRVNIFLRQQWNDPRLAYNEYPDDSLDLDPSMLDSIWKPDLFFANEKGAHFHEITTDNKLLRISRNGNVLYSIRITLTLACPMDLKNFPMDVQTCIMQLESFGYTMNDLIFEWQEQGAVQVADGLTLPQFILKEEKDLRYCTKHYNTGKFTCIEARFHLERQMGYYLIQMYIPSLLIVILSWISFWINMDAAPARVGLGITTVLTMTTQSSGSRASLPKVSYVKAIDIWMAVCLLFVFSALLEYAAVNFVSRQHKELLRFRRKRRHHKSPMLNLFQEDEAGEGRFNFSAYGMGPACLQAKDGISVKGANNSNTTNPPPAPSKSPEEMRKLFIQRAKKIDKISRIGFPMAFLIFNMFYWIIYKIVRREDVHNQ

[1] = tested on: motor coordination of mice; conditions: mouse, in vivo, ip; cited from earlier work
[2] = tested on: maximal electroshock seizures in mice; conditions: mouse, in vivo; cited from earlier work
[3] = tested on: 6 Hz (32 mA) seizures in mice; conditions: mouse, in vivo; cited from earlier work
hCav3.2 = hCav3.2 (Homo sapiens, UniProt O95180); assay: cell-based
Sequence of hCav3.2 (O95180 whole entry): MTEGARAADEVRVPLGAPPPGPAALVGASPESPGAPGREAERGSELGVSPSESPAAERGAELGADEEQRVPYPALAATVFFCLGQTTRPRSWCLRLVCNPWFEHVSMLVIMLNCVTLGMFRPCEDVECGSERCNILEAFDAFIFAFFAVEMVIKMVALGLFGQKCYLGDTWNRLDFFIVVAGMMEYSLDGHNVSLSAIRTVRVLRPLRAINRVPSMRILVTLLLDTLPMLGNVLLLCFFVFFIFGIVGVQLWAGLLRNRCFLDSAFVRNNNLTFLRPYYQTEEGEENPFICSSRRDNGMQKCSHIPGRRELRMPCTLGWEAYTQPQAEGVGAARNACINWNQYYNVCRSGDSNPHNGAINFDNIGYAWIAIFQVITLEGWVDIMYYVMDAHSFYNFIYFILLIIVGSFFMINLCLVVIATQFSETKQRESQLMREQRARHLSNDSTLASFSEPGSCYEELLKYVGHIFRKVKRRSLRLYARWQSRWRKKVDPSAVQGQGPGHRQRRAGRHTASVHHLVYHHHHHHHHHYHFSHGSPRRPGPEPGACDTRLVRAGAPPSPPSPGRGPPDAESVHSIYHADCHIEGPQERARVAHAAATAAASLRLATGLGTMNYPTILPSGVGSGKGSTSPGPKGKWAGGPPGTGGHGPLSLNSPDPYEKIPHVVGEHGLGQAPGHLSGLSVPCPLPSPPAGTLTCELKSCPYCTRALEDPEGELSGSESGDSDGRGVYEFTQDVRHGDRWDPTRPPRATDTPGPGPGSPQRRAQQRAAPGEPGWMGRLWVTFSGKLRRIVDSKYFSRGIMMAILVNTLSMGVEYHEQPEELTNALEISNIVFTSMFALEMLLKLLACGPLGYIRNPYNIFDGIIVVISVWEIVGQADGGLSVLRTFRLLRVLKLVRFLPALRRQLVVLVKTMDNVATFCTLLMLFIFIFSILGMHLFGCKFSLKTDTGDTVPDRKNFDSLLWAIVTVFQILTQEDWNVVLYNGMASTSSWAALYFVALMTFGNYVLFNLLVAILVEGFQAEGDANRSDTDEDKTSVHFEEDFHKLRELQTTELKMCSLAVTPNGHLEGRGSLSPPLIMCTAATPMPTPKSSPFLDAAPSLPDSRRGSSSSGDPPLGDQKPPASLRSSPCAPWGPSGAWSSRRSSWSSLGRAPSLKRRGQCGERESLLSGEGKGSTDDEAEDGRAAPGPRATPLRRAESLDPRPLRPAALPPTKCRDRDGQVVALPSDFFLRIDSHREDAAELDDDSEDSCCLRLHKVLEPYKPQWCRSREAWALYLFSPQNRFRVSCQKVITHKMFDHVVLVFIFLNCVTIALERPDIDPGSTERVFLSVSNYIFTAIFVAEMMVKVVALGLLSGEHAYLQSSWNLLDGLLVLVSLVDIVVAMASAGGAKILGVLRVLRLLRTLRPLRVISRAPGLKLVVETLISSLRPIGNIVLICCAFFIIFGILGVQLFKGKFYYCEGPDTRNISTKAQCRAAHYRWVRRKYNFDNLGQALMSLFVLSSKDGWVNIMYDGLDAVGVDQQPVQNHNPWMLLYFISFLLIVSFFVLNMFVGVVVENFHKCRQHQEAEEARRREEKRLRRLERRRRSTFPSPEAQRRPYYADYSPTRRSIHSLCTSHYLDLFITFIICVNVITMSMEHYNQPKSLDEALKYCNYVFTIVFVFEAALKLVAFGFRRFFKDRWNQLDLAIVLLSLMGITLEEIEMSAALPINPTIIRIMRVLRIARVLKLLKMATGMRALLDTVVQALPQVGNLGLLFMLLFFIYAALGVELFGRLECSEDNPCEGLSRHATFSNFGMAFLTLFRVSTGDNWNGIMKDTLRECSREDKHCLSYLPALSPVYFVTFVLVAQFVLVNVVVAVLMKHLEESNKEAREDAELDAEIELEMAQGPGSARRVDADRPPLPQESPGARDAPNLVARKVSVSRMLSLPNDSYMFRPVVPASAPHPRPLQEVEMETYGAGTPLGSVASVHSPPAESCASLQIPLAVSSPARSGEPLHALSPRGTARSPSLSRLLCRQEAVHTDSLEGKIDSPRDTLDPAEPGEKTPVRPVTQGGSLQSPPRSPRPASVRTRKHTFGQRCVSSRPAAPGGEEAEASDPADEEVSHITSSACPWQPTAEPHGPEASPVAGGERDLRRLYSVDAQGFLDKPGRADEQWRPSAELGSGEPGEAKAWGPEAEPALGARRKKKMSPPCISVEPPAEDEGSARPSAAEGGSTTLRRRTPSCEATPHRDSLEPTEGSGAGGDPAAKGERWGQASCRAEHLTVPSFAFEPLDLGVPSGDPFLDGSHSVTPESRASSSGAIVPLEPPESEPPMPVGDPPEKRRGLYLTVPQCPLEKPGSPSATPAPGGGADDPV

[4] = tested on: PTZ-induced kindling in mice; conditions: VPA 150 mg/kg i.p. (positive control)
[5] = tested on: PTZ-induced seizures in mice; conditions: mouse, in vivo; cited from earlier work

## NCC(=O)O [Glycine, reference compound]
GlyRA1
  GlyRA1 agonist, % Control, Mean: 89.99%
  GlyRA1 agonist, % Control, n1: 92.59%
  GlyRA1 agonist, % Control, n2: 87.38%

## CC(C(=O)NCc1ccccc1F)N1C(=O)CCC1=O (stereo not shown) [II]
[1]
  TD50 (rotarod): 300.9 (256.7–352.6) mg/kg

## COC[C@@H](NC(C)=O)C(=O)NCc1ccccc1 [LCS, lacosamide]
[2]
  ED50 (MES): 9.2 (8.5–10.0) mg/kg
[3]
  ED50 (6 Hz 32 mA): 5.3 (3.5–7.8) mg/kg

## CC[C@@H](C(N)=O)N1CCCC1=O [LEV, levetiracetam]
[2]
  ED50 (MES): >500 mg/kg

## COCC(=O)O[C@]1(CCN(C)CCCc2nc3ccccc3[nH]2)CCc2cc(F)ccc2[C@@H]1C(C)C [Mibefradil, reference compound]
hCav3.2; read-out: hCav3.2 % Inhibition, Mean
  inhibition at 30 µM: 95.5%
hCav3.2; read-out: hCav3.2 % Inhibition, n1
  inhibition at 30 µM: 96.1%
hCav3.2; read-out: hCav3.2 % Inhibition, n2
  inhibition at 30 µM: 94.8%

## CCCC(CCC)C(=O)O [VPA, valproic acid]
[4]
  effect on kindling development: suppressed kindling development
[5]
  ED50 (scPTZ): 239.4 (209.2–274.1) mg/kg
[3]
  ED50 (6 Hz 32 mA): 130.6 (117.6–145.2) mg/kg
